Test results reported in US11083717B2, “Compositions and methods for drug sensitization of parasites” (The Texas A&M University System, priority 2015, dated 2021).
Where two headings read alike, the source gives them in different places.

Assays:
S. cerevisiae = assay: in vitro; conditions: Saccharomyces cerevisiae
Source text: (§1) These tests included an IL-12 mouse model test to determine compound efficacy, verification of MIC50 for CP, cytotoxicity test for fibroblasts and yeast to determine potential toxic effects, a Human ether-a-go-go-related gene (hERG) test to determine potential cardiotoxicity, an AMES test tp determine mutagenic potential, a Safety Screen 44 test to determine common negative off-target drug interastion (Eurofins Cerep, SA, France), a cytochrome P450 (CYP) test to determine potential liver toxicity, a maximum tolerated dose, test, a Pharmacokinetics (PK) test to determine fate of the substance administered to a living organism tests for plasma stability in human and mouse, to measure the degradation of compound in plasma MClint and HClint test to determine in vitro intrinsic clearance for Mouse and Human, and kinetic solubility and plasma protein binding tests in mouse and human.

human fibroblast = assay: in vitro
Source text: as §1

Row | SMILES | concentrations at which not toxic, S. cerevisiae cytotoxicity testing (S. cerevisiae) | concentrations at which not toxic, human fibroblast cytotoxicity testing (human fibroblast; human) | concentrations at which not toxic, human fibroblast cytotoxicity testing (human fibroblast)
1 | CC(=O)Nc1ccc(Oc2nc3ccc(F)cc3s2)cc1 [NZ-420, N-{4-[(6-fluoro-1,3-benzothiazol-2-yl)oxy]phenyl}acetamide] | ≥ 100 µM | ≥ 100 µM | 
2 | CC(C)NC(=O)N(C)c1ccc(Oc2nc3ccc(Cl)cc3s2)cc1 [NZ-388, 1-{4-[(6-chloro-1,3-benzothiazol-2-yl)oxy]phenyl}-1-methyl-3-(propan-2-yl)urea] | ≥ 100 µM |  | ≥ 100 µM
3 | O=C(Nc1ccc(Oc2nc3ccc(Cl)cc3s2)cc1)N1CCNCC1 [NZ-509, N-{4-[(6-chloro-1,3-benzothiazol-2-yl)oxy]phenyl}piperazine-1-carboxamide] | ≥ 100 µM | ≥ 100 µM | 
4 | O=C(O)Cn1ccc(Oc2nc3ccc(Cl)cc3s2)cc1=O [NZ-397, 2-{4-[(6-chloro-1,3-benzothiazol-2-yl)oxy]-2-oxo-1,2-dihydropyridin-1-yl}acetic acid] | ≥ 100 µM |  | ≥ 100 µM
5 | CC(C)NC(=O)Nc1ccc(Oc2nc3ccc(C(F)(F)F)cc3s2)cc1 [NZ-379, 3-(propan-2-yl)-1-(4-{[6-(trifluoromethyl)-1,3-benzothiazol-2-yl]oxy}phenyl)urea] | ≥ 100 µM | ≥ 100 µM | 
6 | CONC(=O)C(C)(C)Oc1ccc(Oc2nc3ccc(Cl)cc3s2)cc1 [NZ-319, 2-{4-[(6-chloro-1,3-benzothiazol-2-yl)oxy]phenoxy}-N-methoxy-2-methylpropanamide] | ≥ 100 µM | ≥ 100 µM | 
7 | CONC(=O)C(C)c1ccc(Oc2nc3ccc(F)cc3s2)cc1 (centres unmarked) [NZ-330, 2-{4-[(6-fluoro-1,3-benzothiazol-2-yl)oxy]phenyl}-N-methoxypropanamide] | ≥ 100 µM | ≥ 100 µM | 
8 | CC(C)(C)OC(=O)NCC(=O)Nc1ccc(Oc2nc3ccc(F)cc3s2)cc1 [NZ-415, tert-butyl N-[({4-[(6-fluoro-1,3-benzothiazol-2-yl)oxy]phenyl}carbamoyl)methyl]carbamate] | ≥ 100 µM | ≥ 100 µM | 
9 | O=C(COc1ccc(Oc2cnc3cc(Cl)ccc3n2)cc1)NOCC1CC1 [NZ-323, 2-{4-[(6-chloroquinoxalin-2-yl)oxy]phenoxy}-N-(cyclopropylmethoxy)acetamide] | ≥ 100 µM |  | ≥ 100 µM
10 | CNC(=O)Cc1ccc(Oc2nc3ccc(Cl)cc3s2)cc1 [NZ-383] | ≥ 100 µM |  | ≥ 100 µM
11 | CNC(=O)C(C)c1ccc(Oc2nc3ccc(F)cc3s2)cc1O (centres unmarked) [NZ-408, 2-{4-[(6-fluoro-1,3-benzothiazol-2-yl)oxy]-2-hydroxyphenyl}-N-methylpropanamide] | ≥ 100 µM | ≥ 100 µM | 
12 | O=C(O)Cc1ccc(Oc2nc3cc(F)c(F)cc3s2)cc1 [NZ-399, 2-{4-[(5,6-difluoro-1,3-benzothiazol-2-yl)oxy]phenyl}acetic acid] | ≥ 100 µM |  | ≥ 100 µM
13 | CCOC(=O)[C@@H](C)Oc1ccc(Oc2nc3ccc(F)cc3s2)cc1 [NZ-251, ethyl (2R)-2-{4-[(6-fluoro-1,3-benzothiazol-2-yl)oxy]phenoxy}propanoate] | ≥ 100 µM | ≥ 100 µM | 
14 | CC(C)(Oc1ccc(Oc2cnc3cc(Cl)ccc3n2)cc1)C(=O)O [NZ-315, 2-{4-[(6-chloroquinoxalin-2-yl)oxy]phenoxy}-2-methylpropanoic acid] | ≥ 100 µM |  | ≥ 100 µM
15 | CC(C)NC(=O)Nc1ccc(Oc2nc3ccc(S(C)(=O)=O)cc3s2)cc1 [NZ-380, 1-{4-[(6-methanesulfonyl-1,3-benzothiazol-2-yl)oxy]phenyl}-3-(propan-2-yl)urea] | ≥ 100 µM | ≥ 100 µM | 
16 | CC(C)(C)OC(=O)NCCC(=O)Nc1ccc(Oc2nc3ccc(F)cc3s2)cc1 [NZ-414, tert-butyl N-[2-({4-[(6-fluoro-1,3-benzothiazol-2-yl)oxy]phenyl}carbamoyl)ethyl]carbamate] | ≥ 100 µM | ≥ 100 µM | 
17 | CC(C)NC(=O)COc1ccc(Oc2cnc3cc(Cl)ccc3n2)cc1 [NZ-307, 2-{4-[(6-chloroquinoxalin-2-yl)oxy]phenoxy}-N-(propan-2-yl)acetamide] | ≥ 100 µM |  | ≥ 100 µM
18 | CNC(=O)C(C)c1ccc(Oc2nc3cc(Cl)c(Cl)cc3s2)cc1 (centres unmarked) [NZ-394, 2-{4-[(5,6-dichloro-1,3-benzothiazol-2-yl)oxy]phenyl}-N-methylpropanamide] | ≥ 100 µM | ≥ 100 µM | 
19 | CNC(=O)Cc1ccc(O)cc1Oc1nc2ccc(Cl)cc2s1 [NZ-390, 2-{2-[(6-chloro-1,3-benzothiazol-2-yl)oxy]-4-hydroxyphenyl}-N-methylacetamide] | ≥ 100 µM | ≥ 100 µM | 
20 | O=C(O)Cc1c(F)cc(Oc2nc3ccc(Cl)cc3s2)cc1F [NZ-458, 2-{4-[(6-chloro-1,3-benzothiazol-2-yl)oxy]-2,6-difluorophenyl}acetic acid] | ≥ 100 µM | ≥ 100 µM | 
21 | CC(C(=O)N1CCN(C2COC2)CC1)c1ccc(Oc2nc3ccc(Cl)cc3s2)cc1 (centres unmarked) [NZ-513, 2-{4-[(6-chloro-1,3-benzothiazol-2-yl)oxy]phenyl}-1-[4-(oxetan-3-yl)piperazin-1-yl]propan-1-one] | ≥ 100 µM | ≥ 100 µM | 
22 | COC(=O)Cc1ccc(Oc2nc3ccc(F)cc3s2)cc1 [NZ-294, methyl 2-{4-[(6-fluoro-1,3-benzothiazol-2-yl)oxy]phenyl}acetate] | ≥ 100 µM | ≥ 100 µM | 
23 | O=C(O)COc1ccc(Oc2nc3ccc(F)cc3s2)cc1 [NZ-304, 2-{4-[(6-fluoro-1,3-benzothiazol-2-yl)oxy]phenoxy}acetic acid] | ≥ 100 µM | ≥ 100 µM | 
24 | COC(=O)C(C)c1ccc(Oc2cnc3cc(Cl)ccc3n2)cc1 (centres unmarked) [NZ-308, methyl 2-{4-[(6-chloroquinoxalin-2-yl)oxy]phenyl}propanoate] | ≥ 100 µM | ≥ 100 µM | 
25 | O=C(O)Cc1ccc(Oc2nc3ccc(Cl)cc3s2)cc1 [NZ-287, 2-{4-[(6-chloro-1,3-benzothiazol-2-yl)oxy]phenyl}acetic acid] | ≥ 100 µM | ≥ 100 µM | 
26 | CC(C(=O)N1CCN(CC(F)(F)F)CC1)c1ccc(Oc2nc3ccc(Cl)cc3s2)cc1 (centres unmarked) [NZ-512] | ≥ 100 µM | ≥ 100 µM | 
27 | CC(C(=O)O)c1ccc(Oc2nc3ccc(F)cc3s2)cc1 (centres unmarked) [NZ-329, 2-{4-[(6-fluoro-1,3-benzothiazol-2-yl)oxy]phenyl}propanoic acid] | ≥ 100 µM | ≥ 100 µM | 
28 | CC(C)NC(=O)Cn1ccc(Oc2nc3ccc(Cl)cc3s2)cc1=O [NZ-404, 2-{4-[(6-chloro-1,3-benzothiazol-2-yl)oxy]-2-oxo-1,2-dihydropyridin-1-yl}-N-(propan-2-yl)acetamide] | ≥ 100 µM | ≥ 100 µM | 
